One assay concerns the target T1, M1 muscarinic receptor (Homo sapiens, UniProt P11229).
T1 construct: expressed in transfected cells; host or cells: CHO (M1-CHO)
T1 sequence (P11229 1-460): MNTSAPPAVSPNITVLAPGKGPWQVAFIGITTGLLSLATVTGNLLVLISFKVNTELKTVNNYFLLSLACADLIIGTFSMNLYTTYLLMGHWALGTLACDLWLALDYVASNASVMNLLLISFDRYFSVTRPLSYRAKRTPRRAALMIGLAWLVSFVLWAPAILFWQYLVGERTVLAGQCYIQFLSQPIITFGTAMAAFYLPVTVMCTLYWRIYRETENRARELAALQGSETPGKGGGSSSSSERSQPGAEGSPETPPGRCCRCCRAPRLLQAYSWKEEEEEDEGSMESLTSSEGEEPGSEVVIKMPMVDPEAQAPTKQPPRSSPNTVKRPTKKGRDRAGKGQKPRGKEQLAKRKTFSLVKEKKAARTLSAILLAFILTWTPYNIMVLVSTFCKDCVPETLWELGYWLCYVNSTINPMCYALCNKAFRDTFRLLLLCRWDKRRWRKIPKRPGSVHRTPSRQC
Put plainly: Functional mobilization of intracellular calcium (FLIPR), M1-CHO cells. Format: cell-based. As to conditions: for Emax: 100% efficacy is the maximum response obtained with the Carbachol control; for M1 Activity: CHO cells expressing M1, calcium mobilization. The procedure:
(§1) Functional Mobilization of Intracellular Calcium to Determine Muscarinic Receptor Activity:
(§2) CHO cells expressing muscarinic receptors (M1 to M5) are grown as monolayers in tissue culture flasks at 37° C. in a humidified atmosphere containing 5% CO2 and passaged every 3-5 days. The growth media is Dulbecco's modified eagles medium (DMEM, Gibco Cat#12430-054), containing 25 mM Hepes and supplemented with Fetal Bovine Serum (Hyclone, cat# SH30071.03), 0.1 mM of MEM non-essential amino acids (GIBCO, Cat#11140-050), 1 mM MEM Sodium Pyruvate (GIBCO Cat#11360-070) and 100 units/ml of Penicillin G and 100 μg/ml of Streptomycin (GIBCO Cat#15140-122). The recombinant muscarinic receptor cell lines are grown under antibiotic pressure with media containing 25 μg/ml zeocin and 500 μg/ml G418 (M1-CHO), 4 μg/ml puromycin, 50 μg/ml zeocin and 2.5 μg/ml blasticidin (M2 and M4-CHO) or 50 μg/ml zeocin and 4 μg/ml puromycin (M3 and M5-CHO).
(§3) Cells are harvested at 80-90% confluence using Versene (GIBCO Cat#15040-066), collected by centrifugation and seeded 18-24 hours prior to running the calcium assay at a density of 5,000-10,000 cells/well in […], clear-bottomed 384-well plates (BD Biocoat, poly-D-lysine, Cat#356663). The day of the experiment, the cells are washed with a plate washer (Bioteck Instrunents, ELX 405) using bath 1 buffer (140-mM NaCl, 4.5-mM KCl, 2-mM CaCl2, 1-mM MgCl2, 10-mM Hepes-Na, 10-mM Glucose, pH 7.4, with NaOH) containing 1 mM Probenecid. Next, the calcium dye Fluo-3 (25 μl/well of Fluo-3 AM at 4 μM, Molecular Probes F-1241, in Bath 1 buffer containing 1 mM Probenecid) is added to the 25 μl of Bath 1 remaining in each well after the plate wash and the dye is loaded at 37° C. in the tissue culture incubator for 60-90 min. The fluorescent dye is removed using the plate washer with Bath 1 containing 1 mM Probenecid, leaving 25 μl/well of this solution after the wash. Alternatively, cells can be loaded with the calcium indicator from Molecular Devices (Calcium 3 Assay Reagents, Cat # R7181) adding 5 μl of a 5× solution dye in Bath 1 containing 1 mM Probenecid (10 ml per dye flask cat# R7182 to generate a solution 20×) to 20 μl of the same buffer. After loading for 60 min, the experiment can be run without having to remove the dye.
(§4) Compounds are prepared at a 2× fold concentration in a 96-well plate (round bottom, Costar Corning cat#3656), by reconstituting the pre-spotted compounds in bath 1 containing 1 mM probenecid. The final concentration DMSO is 0.5%, and the amount of DMSO is normalized across the assay plate. To determine an agonist action of the compounds on muscarinic receptors, the reconstituted compounds are added (25 μl compound/well) to the cell assay plate (containing 25 μl/well) using the multi-channel robotic system of the FLIPR 3 Instrument (Molecular Devices, Sunnyvale, Calif.). To determine a functional inhibitory action of the compounds on muscarinic receptors, the reconstituted compounds are added (25 μl compound/well) to the assay plate and pre-incubated for 15 min prior to adding 25 μl of Carbachol at 3× the EC80 for each muscarinic subtype. Alternatively, the compounds can be co-applied simultaneously with the agonist. In both assay modes, the fluorescence is recorded for 60 sec (excitation wavelength is […] and emission wavelength 540 nm) using the FLIPR 3 instrument.
(§5) The potency, efficacy and selectivity of the muscarinic compounds were evaluated by screening the compound activity across the whole family (M1 to M5 cells). Compounds were also screened for activity on other proteins such as other GPCRs and ion channels to determine selectivity on M4 receptors.
(§6) Examples of activities and efficacies of the muscarinic compounds of formulae (I, Ia, Ib, Ic, Id, and Ie) on modulating M1 and M4 receptors are shown below in Table 4. […]
A general note: Calcium assays in cells follow changes in intracellular calcium, usually with a dye or a luminescent sensor.

The target in the next assay is T2, M4 muscarinic receptor (Homo sapiens, UniProt P08173).
T2 construct: expressed in transfected cells; host or cells: CHO (M4-CHO)
T2 sequence (P08173 1-479): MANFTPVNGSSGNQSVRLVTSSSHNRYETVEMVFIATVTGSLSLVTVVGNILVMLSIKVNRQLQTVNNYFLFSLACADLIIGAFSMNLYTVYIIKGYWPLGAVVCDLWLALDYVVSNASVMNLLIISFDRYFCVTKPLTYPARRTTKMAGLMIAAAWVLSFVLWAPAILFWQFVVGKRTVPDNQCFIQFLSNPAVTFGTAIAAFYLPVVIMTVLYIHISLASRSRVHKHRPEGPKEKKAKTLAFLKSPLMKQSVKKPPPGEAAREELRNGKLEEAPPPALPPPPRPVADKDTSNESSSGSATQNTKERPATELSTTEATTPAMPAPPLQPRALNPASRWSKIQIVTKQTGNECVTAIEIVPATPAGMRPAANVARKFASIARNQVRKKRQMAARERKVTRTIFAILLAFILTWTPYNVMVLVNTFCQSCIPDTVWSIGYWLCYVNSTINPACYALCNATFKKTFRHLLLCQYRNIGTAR
The experiment in a line: Functional mobilization of intracellular calcium (FLIPR), M4-CHO cells. Format: cell-based. As to conditions: for Emax: 100% efficacy is the maximum response obtained with the Carbachol control; for M4 Activity: CHO cells expressing M4, calcium mobilization. The procedure: as §1, §2, §3, §4, §5, §6

By Emax is commonly meant the size of the effect at its maximum, as opposed to the concentration needed.

Consider `CC(=O)N1CCC2(CCN(C3CCN(c4cnccn4)CC3)CC2)c2ccccc21` [compound 17], for which, on M1 muscarinic receptor, the Emax lay within 25 to 100% and the “M1 Activity” value is “+++ (activity was measured to be less than 2.0 μM)”. Moreover, at M4 muscarinic receptor, the Emax was in the range of 25 to 100% and the “M4 Activity” value was “+++ (activity was measured to be less than 2.0 μM)”.

`Cc1cncc(N2CCC(N3CCC4(CC3)CN(C(=O)N(C)C)c3ccccc34)CC2)n1` [compound 79]: at M1 muscarinic receptor, the Emax lay in the range of 25 to 100% and the “M1 Activity” value is “+++ (activity was measured to be less than 2.0 μM)”. Further, at M4 muscarinic receptor, the Emax was 25 to 100% and the “M4 Activity” value is reported as “+++ (activity was measured to be less than 2.0 μM)”.

On to `CCc1nsc(N2CCC(N3CCC4(CCN(C(=O)N(C)C)c5ccccc54)CC3)CC2)n1` [compound 7], for which, on M1 muscarinic receptor, the Emax lay within 25 to 100% and the “M1 Activity” value is listed as “+++ (activity was measured to be less than 2.0 μM)”. For the same compound, on M4 muscarinic receptor, the Emax was 25 to 100% and the “M4 Activity” value is “+++ (activity was measured to be less than 2.0 μM)”.

As to `CN(C)C(=O)N1CC2(CCN(C3CC4CCC(C3)N4c3cnccn3)CC2)c2ccccc21` (stereo not shown) [Compound No. 103, N,N-dimethyl-1′-(8-(pyrazin-2-yl)-8-azabicyclo[3.2.1]octan-3-yl)spiro[indoline-3,4′-piperidine]-1-carboxamide], at M1 muscarinic receptor, the Emax lay within 25 to 100% and the “M1 Activity” value is “+++ (activity was measured to be less than 2.0 μM)”. On M4 muscarinic receptor, the Emax is over 100% and the “M4 Activity” value is “+++ (activity was measured to be less than 2.0 μM)”.

Take `COC(=O)N1CC[C@@H](CN2CCC3(CC2)CN(C(=O)N(C)C)c2ccccc23)C1` [compound 54]: at M1 muscarinic receptor, the Emax fell in the range of 25 to 100% and the “M1 Activity” value is “+++ (activity was measured to be less than 2.0 μM)”. Besides, on M4 muscarinic receptor, the Emax was in the range of 25 to 100% and the “M4 Activity” value is “+++ (activity was measured to be less than 2.0 μM)”.

With `Cc1cnc(N2CCC(N3CCC4(CC3)CN(C(=O)N(C)C)c3ccccc34)CC2)s1` [compound 116], on M1 muscarinic receptor, the Emax was under 25% and the “M1 Activity” value is given as “+ (activity was measured to be greater than 10.0 μM)”. Further, at M4 muscarinic receptor, the Emax is under 25% and the “M4 Activity” value was “+ (activity was measured to be greater than 10.0 μM)”.

For `COCCOC(=O)N1CC[C@H](CN2CCC3(CC2)CN(C(=O)N(C)C)c2ccccc23)C1` [compound 64], at M1 muscarinic receptor, the Emax lay in the range of 25 to 100% and the “M1 Activity” value is “++ (activity was measured to be from 2.0 μM to 10.0 μM)”. At M4 muscarinic receptor, the Emax was in the range of 25 to 100% and the “M4 Activity” value is “+++ (activity was measured to be less than 2.0 μM)”.

On to `CN(C)C(=O)N1CC2(CCN(C3CCN(c4nncs4)CC3)CC2)c2ccccc21` [compound 89], for which, on M1 muscarinic receptor, the Emax is under 25% and the “M1 Activity” value is “++ (activity was measured to be from 2.0 μM to 10.0 μM)”. Moreover, on M4 muscarinic receptor, the Emax lay within 25 to 100% and the “M4 Activity” value was “++ (activity was measured to be from 2.0 μM to 10.0 μM)”.

Consider `COC(=O)N1CC[C@H](CN2CCC3(CC2)CN(C(=O)N(C)C)c2ccccc23)C1` [compound 59], for which, on M1 muscarinic receptor, the Emax is 25 to 100% and the “M1 Activity” value is given as “+++ (activity was measured to be less than 2.0 μM)”. Further, on M4 muscarinic receptor, the Emax fell in the range of 25 to 100% and the “M4 Activity” value is “+++ (activity was measured to be less than 2.0 μM)”.

For `COCCOC(=O)N1CCCC(N2CCC3(CC2)CN(C(=O)N(C)C)c2ccccc23)CC1` (stereo not shown) [compound 72], on M1 muscarinic receptor, the Emax lay within 25 to 100% and the “M1 Activity” value is “+++ (activity was measured to be less than 2.0 μM)”. In addition, on M4 muscarinic receptor, the Emax fell in the range of 25 to 100% and the “M4 Activity” value is recorded as “+++ (activity was measured to be less than 2.0 μM)”.

For `CC(=O)N1CCC2(CCN(C3CCN(c4nc(C)ns4)CC3)CC2)c2ccccc21` [compound 15], at M1 muscarinic receptor, the Emax was in the range of 25 to 100% and the “M1 Activity” value is recorded as “+++ (activity was measured to be less than 2.0 μM)”. At M4 muscarinic receptor, the Emax lay in the range of 25 to 100% and the “M4 Activity” value is recorded as “+++ (activity was measured to be less than 2.0 μM)”.

In the case of `Cc1nsc(N2C3CCC2CC(N2CCC4(CCN(C(=O)N(C)C)c5ccccc54)CC2)C3)n1` (stereo not shown) [compound 31], on M1 muscarinic receptor, the Emax lay within 25 to 100% and the “M1 Activity” value is “+++ (activity was measured to be less than 2.0 μM)”. Besides, at M4 muscarinic receptor, the Emax was 25 to 100% and the “M4 Activity” value was “+++ (activity was measured to be less than 2.0 μM)”.

For `COC(=O)N1C2CCC1CC(N1CCC3(CC1)CN(C(=O)N(C)C)c1ccccc13)C2` (stereo not shown) [compound 45], at M1 muscarinic receptor, the Emax fell in the range of 25 to 100% and the “M1 Activity” value is given as “++ (activity was measured to be from 2.0 μM to 10.0 μM)”. For the same compound, on M4 muscarinic receptor, the Emax lay within 25 to 100% and the “M4 Activity” value was “+++ (activity was measured to be less than 2.0 μM)”.

Regarding `CN(C)C(=O)N1CC2(CCN(C[C@@H]3CCN(c4cnccn4)C3)CC2)c2ccccc21` [compound 109], at M1 muscarinic receptor, the maximal effect (Emax) is 25 to 100% and the “M1 Activity” value was “+++ (activity was measured to be less than 2.0 μM)”. Further, at M4 muscarinic receptor, the Emax is over 100% and the “M4 Activity” value was “+++ (activity was measured to be less than 2.0 μM)”.

With `C#CCCOC(=O)N1C2CCC1CC(N1CCC3(CC1)CN(C(=O)N(C)C)c1ccccc13)C2` (stereo not shown) [compound 51], on M1 muscarinic receptor, the Emax lay within 25 to 100% and the “M1 Activity” value is “+++ (activity was measured to be less than 2.0 μM)”. Also, on M4 muscarinic receptor, the Emax lay in the range of 25 to 100% and the “M4 Activity” value is reported as “+++ (activity was measured to be less than 2.0 μM)”.

`CN(C)C(=O)N1CC2(CCN(C3CC4CCC(C3)N4C(=O)OCC(F)F)CC2)c2ccccc21` (stereo not shown) [compound 49]: on M1 muscarinic receptor, the Emax lay in the range of 25 to 100% and the “M1 Activity” value is on record as “+++ (activity was measured to be less than 2.0 μM)”. On M4 muscarinic receptor, the Emax is 25 to 100% and the “M4 Activity” value is on record as “+++ (activity was measured to be less than 2.0 μM)”.

The values above are taken from US8263605B2, “Modulators of muscarinic receptors” (Vertex Pharmaceutical Incorporated, priority 2006, dated 2012).
